Results reported in patent US6362166B1, “Antipicornaviral compounds and methods for their use and preparation” (Agouron Pharmaceuticals, Inc., priority 1996, dated 2002).
Like-named read-outs stand apart in the source and are kept apart here.

Columns and labels:
[1] = Cytotoxicity in mock-infected HI-HeLa cells (antirhinoviral assay, XTT); type: cell-based; conditions: human; mock-infected HI-HeLa cells; two days; XTT; read-out: CC50
[2] = target: T1, Recombinant Rhinovirus 3C protease (RVP) serotype-14 (Human rhinovirus 14, UniProt P03303); test: Inhibition of Rhinovirus Protease (fluorescence resonance energy transfer assay), serotype 14; type: biochemical, human rhinovirus (HRV); conditions: for kinact/KI: pH 7.6, read-out: kobs/I
T1 construct: Recombinant Rhinovirus 3C proteases from serotypes 14, 16, 2 or 89; made in house
T1 sequence (P03303 1538-1719): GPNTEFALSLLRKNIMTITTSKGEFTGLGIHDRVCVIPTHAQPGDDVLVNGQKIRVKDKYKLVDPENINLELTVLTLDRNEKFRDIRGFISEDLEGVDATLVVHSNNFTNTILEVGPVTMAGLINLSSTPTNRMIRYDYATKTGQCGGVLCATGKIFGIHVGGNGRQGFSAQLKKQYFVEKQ

HRV-14 = test: Antirhinoviral HI-HeLa Cell Culture Assay (Cell Protection Assay, XTT dye reduction); type: cell-based, human rhinovirus (HRV) serotype-14
Outline: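 Protection measured via XTT dye reduction (450/650 nm) two days after compound treatment of HI-HeLa cells, mock-infected or infected with cDNA-derived HRV-14 at m.o.i. 0.13. CC50 divided by EC50 gives the therapeutic index.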

[3] = target: T2, Recombinant Rhinovirus 3C protease (RVP) serotype 16 (Human rhinovirus 16, UniProt Q82122); test: Inhibition of Rhinovirus Protease (fluorescence resonance energy transfer assay), serotype 16; type: biochemical, human rhinovirus (HRV)
T2 construct: Recombinant Rhinovirus 3C proteases from serotypes 14, 16, 2 or 89; made in house
T2 sequence (Q82122 1511-1693): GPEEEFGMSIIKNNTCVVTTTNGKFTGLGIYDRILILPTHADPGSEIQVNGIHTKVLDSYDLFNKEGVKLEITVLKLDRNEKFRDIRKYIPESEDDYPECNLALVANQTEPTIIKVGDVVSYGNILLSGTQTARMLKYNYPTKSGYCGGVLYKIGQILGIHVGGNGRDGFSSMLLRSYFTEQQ
Method: Stock solution (50 mM, in DMSO) of various compounds were prepared; dilutions were in the same solvent. Recombinant Rhinovirus 3C proteases from serotypes 14, 16, 2 or 89 were prepared by the following standard chromatographic procedures: (1) ion exchange using Q Sepharose Fast Flow from Pharmacia; (2) affinity chromatography using Affi-Gel Blue from Biorad; and (3) sizing using Sephadex G-100 from Pharmacia. Assays contained 2% DMSO, 50 mM tris pH 7.6, 1 mM EDTA, a compound at the indicated concentrations, approximately 1 μM substrate, and 50-100 nM protease. […] The kobs/I values were obtained from reactions initiated by addition of enzyme rather than substrate. RVP activity is measured in the fluorescence resonance energy transfer assay. The substrate was (N-terminal) DABCYL-([…]Gyl)-EDANS. In the uncleaved peptide, the EDANS fluorescence was quenched by the proximal DABCYL moeity. When the peptide was cleaved, the quenching was relieved, and activity was measured as an increase in fluorescence signal.
In the above table, all data is RVP serotype-14 unless otherwise noted in parentheses. All strains of human rhinovirus (HRV) were purchased from American Type Culture Collection (ATCC), except for serotype 14, which was produced from the infectious cDNA clone constructed and supplied to us by Dr. Roland Rueckert at the Institute for Molecular Virology, University of Wisconsin, Madison, Wisc. […] The data in the column designated kobs/I was measured from progress curves in enzyme start experiments.

HI-HeLa cells = test: Cytotoxicity in mock-infected HI-HeLa cells (antirhinoviral assay, XTT); type: cell-based
[4] = Rhinovirus B, HRV14, 48 h, HI-HeLa cells infected with HRV-14, m.o.i. 0.13, two days, XTT, read-out: EC50

| Compound | CC50 at 2 days [1] [µM] | Ki [2] [µM] | kinact/KI [2] [M⁻¹ s⁻¹] | EC50 (HRV-14; [4]) [µM] | other results |
| --- | --- | --- | --- | --- | --- |
| COC(=O)/C=C\[C@H](CCC(N)=O)NC(=O)[C@H](Cc1ccccc1)NC(=O)[C@H](CC(C)C)NC(=O)OCc1ccccc1 [Compound 7, Methyl-3-(CBZ-L-Leu-L-Phe-L-Gln)-Z-Propenoate] | > 320 | 9.5 | 2400 | 3.2 | inhibition at 1 µM ([3]; RVP serotype 16, 1 μM compound, 10 minute preincubation with 50 nM RVP, read-out: INHIB (percent inhibition)): 42% |
| CCOC(=O)/C=C/[C@H](CCC(N)=O)NC(=O)[C@H](Cc1ccccc1)NC(=O)[C@H](CC(C)C)NC(=O)OCc1ccncc1 [Compound 36] | > 320 | 15 | 12000 | 5.6 | – |
| CCOC(=O)/C=C/C(CCC(N)=O)NC(=O)C(Cc1ccccc1)NC(=O)C(CC(C)C)NC(=O)c1ccc2ccccc2c1 (stereo not shown) [Compound 44] | > 320 | 12.6 | 21000 | 1 | – |
| CCOC(=O)/C=C/[C@H](COC(N)=O)NC(=O)[C@H](Cc1ccccc1)NC(=O)[C@H](CC(C)C)NC(=O)OCc1ccccc1 [Compound 56] | > 320 | 15 | 5620 | 1.6 | – |
| CC(C)C[C@H](NC(=O)OCc1ccccc1)C(=O)N[C@@H](Cc1ccccc1)C(=O)N[C@H](/C=C/c1nccn1C)CCC(N)=O [Compound 65] | > 320 | 2.9 | – | 158 | – |
| CC(C)C[C@H](NC(=O)OCc1ccccc1)C(=O)N[C@@H](Cc1ccccc1)C(=O)N[C@H](/C=C/CCl)CCC(N)=O [Compound 74] | 250 | 2.4 | – | 10 | – |
| CC(C)C[C@H](NC(=O)OCc1ccccc1)C(=O)N[C@@H](Cc1ccccc1)C(=O)N[C@H](/C=C\CCl)CCC(N)=O [Compound 78] | 79.4 | 7 | – | 10 | – |
| CON=C/C=C/[C@H](CCC(N)=O)NC(=O)[C@H](Cc1ccccc1)NC(=O)[C@H](CC(C)C)NC(=O)OCc1ccccc1 [Compound 83] | > 320 | 8 | – | 100 | – |
| CC(C)C[C@H](NC(=O)OCc1ccccc1)C(=O)N[C@@H](Cc1ccccc1)C(=O)N[C@H](/C=C/C(=O)N1CCc2cc([N+](=O)[O-])ccc21)CCC(N)=O [Compound 86] | > 320 | 4 | 12000 | 17 | – |
| CC(C)C[C@H](NC(=O)OCc1ccccc1)C(=O)N[C@@H](Cc1ccccc1)C(=O)N[C@H](/C=C/C(=O)N1CCc2cc(F)ccc21)CCC(N)=O [Compound 87] | > 320 | 6 | 5430 | 10.6 | – |
| CC(C)C[C@H](NC(=O)OCc1ccccc1)C(=O)N[C@@H](Cc1ccccc1)C(=O)N[C@H](/C=C/C(=O)N1CCc2cc(S(=O)(=O)N(C)C)ccc21)CCC(N)=O [Compound 88] | > 160 | > 30 | 8960 | 8.8 | – |
| CC(C)C[C@H](NC(=O)OCc1ccccc1)C(=O)N[C@@H](Cc1ccccc1)C(=O)N[C@H](/C=C/C(=O)n1ccc2ccccc21)CCC(N)=O [Compound 89] | 29 | 5 | 53400 | 1.8 | kinact/KI ([3]; pH 7.6, RVP serotype 16, progress curves in enzyme start experiments, read-out: kobs/I): 2800 M⁻¹ s⁻¹ |
| CC(C)CC(NC(=O)OCc1ccccc1)C(=O)NC(Cc1ccccc1)C(=O)NC(C=C1CCOC1=O)CCC(N)=O (stereo not shown) [Compound 90] | – | – | – | – | CC50 (HI-HeLa cells): > 320 µM; kobs/I ([2]; RVP serotype-14, progress curves in enzyme start experiments): 10,918 M-1 sec-1; EC50 (HRV-14; HI-HeLa cells infected with HRV-14, m.o.i. 0.13, two days, XTT, read-out: EC50): 5.2 µM; kobs/I ([3]; RVP serotype 16, progress curves in enzyme start experiments): 3,600 M-1 sec-1 |
| CC(C)C[C@H](NC(=O)OCc1ccccc1)C(=O)N[C@@H](Cc1ccccc1)C(=O)N[C@H](/C=C/C(=O)N1CCc2cccc(Cl)c21)CCC(N)=O [Compound 91] | > 320 | 10 | 5430 | 56 | – |
| COc1ccc2c(c1)CCN2C(=O)C=CC(CCC(N)=O)NC(=O)C(Cc1ccccc1)NC(=O)C(CC(C)C)NC(=O)OCc1ccccc1 (stereo not shown) [Compound 93] | > 320 | – | 3440 | > 320 | – |
| CC(C)C[C@H](NC(=O)OCc1ccccc1)C(=O)N[C@@H](Cc1ccccc1)C(=O)N[C@H](/C=C/C(=O)N1CCc2cc(Br)ccc21)CCC(N)=O [Compound 94] | > 320 | 1.5 | 5800 | 46.8 | – |

| Compound | CC50 at 2 days [1] [µM] | Ki [2] [µM] | kinact/KI [2] [M⁻¹ s⁻¹] | EC50 (HRV-14; [4]) [µM] | other results |
| --- | --- | --- | --- | --- | --- |
| CCOC(=O)/C=C/[C@H](CCC(N)=O)NC(=O)[C@H](Cc1ccccc1)NC(=O)CNC(=O)OCc1ccccc1 [Compound 102] | > 320 | 12 | 3840 | 5.6 | – |
| CCOC(=O)/C=C/[C@H](CCC(N)=O)NC(=O)[C@H](Cc1ccccc1)NC(=O)[C@H](CC(C)C)NC(=O)c1ccc(Oc2ccccc2)cc1 [Compound 104] | > 320 | 2.5 | 8000 | 5.2 | Ki [3]: 1.5 µM |
| CCOC(=O)/C=C/[C@H](CCC(N)=O)NC(=O)[C@H](Cc1ccccc1)NC(=O)[C@H](CC(C)C)NC(C)=O [Compound 107] | > 320 | 13.5 | 3660 | 13.5 | – |
| CCOC(=O)/C=C/[C@H](CCC(N)=O)NC(=O)[C@H](Cc1ccccc1)NC(=O)[C@H](CC(C)C)NC(=O)CO [Compound 111] | > 320 | 5 | 2060 | 29.5 | – |
| CCOC(=O)/C=C/[C@H](CCC(N)=O)NC(=O)[C@H](Cc1cnc[nH]1)NC(=O)[C@H](CC(C)C)NC(=O)OCc1ccccc1 [Compound 112] | > 320 | 13 | 6800 | – | EC50 (HRV-14; Rhinovirus B, HRV14, 48 h): 27 µM |
| CCOC(=O)/C=C/[C@H](CCC(N)=O)NC(=O)[C@H](Cc1ccccc1)NC(=O)[C@H](CC(C)C)NC(=O)CCO [Compound 115] | > 320 | 11 | 4480 | 19 | – |
| CCOC(=O)/C=C/[C@H](CCC(N)=O)NC(=O)[C@H](Cc1ccccc1)NC(=O)[C@H](CC(C)C)NC(=O)CSc1ccccn1 [Compound 118] | > 320 | 39 | 1450 | 17.8 | – |
| CCOC(=O)/C=C/[C@H](CCC(N)=O)NC(=O)[C@H](Cc1ccccc1)NC(=O)[C@H](CC(C)C)NC(=O)SC [Compound 119] | > 320 | 5 | 69800 | 1.1 | – |
| CC(C)CC(NC(=O)OCc1ccccc1)C(=O)NC(Cc1ccccc1)C(=O)NC(C=C1CCCOC1=O)CCC(N)=O (stereo not shown) [Compound 130] | > 100 | 0.03 to 0.04 | – | 15.8 | – |
| CCOC(=O)/C=C/[C@H](CCC(N)=O)NC(=O)[C@H](Cc1ccc(C#N)cc1)NC(=O)[C@H](CC(C)C)NC(=O)OCc1ccccc1 [Compound 132] | > 320 | 10 | 10800 | 5.6 | – |
| CC(C)C[C@H](NC(=O)OCc1ccccc1)C(=O)N[C@@H](Cc1ccccc1)C(=O)N[C@H](/C=C/C(=O)N(C)O)CCC(N)=O [Compound 138] | 41.7 | 20 | 1770 | > 41.7 | – |
| CC(C)CC(NC(=O)OCc1ccccc1)C(=O)NC(Cc1ccccc1)C(=O)NC(C=Cc1ccccc1C#N)CCC(N)=O (stereo not shown) [Compound 145] | > 320 | 10 to 20 | – | > 320 | – |
| CCOC(=O)/C=C/[C@H](CCC(N)=O)NC(=O)[C@H](Cc1ccccc1)NC(=O)[C@@H](NC(=O)OCc1ccccc1)C(C)(C)C [Compound 151] | 178 | > 4.8 | 39800 | 0.32 | – |
| CCOC(=O)/C=C/[C@H](CCC(N)=O)NC(=O)[C@H](Cc1ccccc1)NC(=O)[C@@H](NC(=O)OCc1ccccc1)C(C)O (stereo partly shown) [Compound 152] | > 320 | 3.2 | 38900 | 1.78 | – |
| CC(C)C[C@H](NC(=O)OCc1ccccc1)C(=O)N[C@@H](Cc1ccccc1)C(=O)N[C@H](/C=C/C(=O)OCC(C)(C)C)CCC(N)=O [Compound 163] | > 100 | 3.6 | 9800 | 0.5 | – |
| CCOC(=O)/C=C/[C@H](CCC(N)=O)NC(=O)[C@H](Cc1ccccc1)NC(=O)[C@@H](NC(=O)SCC)C(C)C [Compound 180] | > 100 | 0.42 | 300000 | 0.056 | – |
